What was measured:
HMSC = assay: Differentiation marker expression in HMSC treated with cytokines/growth factors; type: cell-based, human
Experimental: 1.1. HMSC—Normal adult articular cartilage progenitor cells were obtained from human cartilage. The cartilage was dissected and cultured in fresh DMEM medium supplemented with 10% FCS, L-glutamine and antibiotics. Two weeks after the cultivation of dissected cartilage, the remaining pieces were removed and the attached cells were used.
(§1) A series of in vitro experiments using HMSC was conducted. The cells were exposed to a panel of treatments which cause either chondrogenic (e.g., IGF-1) or osteogenic and angiogenic (e.g., IL1 and FGF-2) responses. Two rounds of in vitro experiments were performed. Initially, a calibration experiment was carried out in order to determine the time/dose kinetics of the cellular response to the stimuli. Based on this study, a large-scale experiment was performed from which RNA was prepared and used in the course of the gene expression profiling experiments.
In order to validate the differentiation response of the HMSC to the various stimuli, cells exposed to different treatments (Table 1) were tested for the expression of markers specific for osteoblastic and chondroblastic lineages by immunohistochemistry and staining procedures. To optimize the response of HMSC to differentiation treatment, it was studied on cells grown at varying density (sparse and confluent).

[1] = system: mouse alveolar macrophages; details: cited from earlier work; for fusion of macrophages: 1α,25(OH)2D3-induced; for enhanced synthesis of proteins induced by 1α,25(OH)2D3: 9 of the 14 induced proteins
spermidine synthase [2] = molecular target: T1, spermidine synthase (Homo sapiens, UniProt P19623); details: variety of mammalian cells exposed to racemic AdoDATO; cited from earlier work
T1 construct: host or cells: a variety of mammalian cells (endogenous enzyme)
T1 sequence (P19623 1-302): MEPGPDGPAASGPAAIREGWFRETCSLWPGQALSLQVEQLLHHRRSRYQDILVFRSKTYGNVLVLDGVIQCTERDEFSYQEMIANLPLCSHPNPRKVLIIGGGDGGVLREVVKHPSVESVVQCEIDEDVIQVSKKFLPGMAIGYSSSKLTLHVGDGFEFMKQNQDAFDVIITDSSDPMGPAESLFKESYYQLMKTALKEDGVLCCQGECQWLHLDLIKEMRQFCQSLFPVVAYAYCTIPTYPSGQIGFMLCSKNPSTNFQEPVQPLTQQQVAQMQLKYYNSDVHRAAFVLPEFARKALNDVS

cell proliferation = details: cell culture; cited from earlier work
spermidine synthase [3] = details: neonatal rats, cited from earlier work
alkaline phosphatase = molecular target: T2, alkaline phosphatase (Homo sapiens, UniProt P05186); details: cited from earlier work
T2 construct: alkaline phosphatase produced from cartilage
T2 sequence (P05186 18-501): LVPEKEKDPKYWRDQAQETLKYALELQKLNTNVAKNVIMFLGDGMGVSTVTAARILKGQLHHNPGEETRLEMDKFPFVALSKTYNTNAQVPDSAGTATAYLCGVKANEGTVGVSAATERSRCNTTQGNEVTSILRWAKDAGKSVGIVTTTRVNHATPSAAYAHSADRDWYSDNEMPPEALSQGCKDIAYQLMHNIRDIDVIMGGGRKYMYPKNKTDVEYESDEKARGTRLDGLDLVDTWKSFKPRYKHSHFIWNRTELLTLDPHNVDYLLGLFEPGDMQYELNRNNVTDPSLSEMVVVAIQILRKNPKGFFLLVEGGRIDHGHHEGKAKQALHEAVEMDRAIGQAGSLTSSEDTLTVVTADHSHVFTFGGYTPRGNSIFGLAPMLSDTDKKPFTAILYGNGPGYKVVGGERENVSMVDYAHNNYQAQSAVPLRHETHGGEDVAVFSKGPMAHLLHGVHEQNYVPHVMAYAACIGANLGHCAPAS

[4] = system: proteoglycan subunits bound to type II collagen; details: Sepharose 4B-collagen column loaded with proteoglycan subunits; cited from earlier work
spermidine synthase [5] = assay: Gene expression profiling of treated HMSC by cDNA microarray hybridization; type: cell-based, human; details: HMSC treated with FGF-2
Experimental: as §1
cDNA probes were synthesized from 1 μg of polyA RNA derived from every sample using reverse transcriptase (Superscript, Gibco-BRL) and 18-mer oligo-dT primer. Cy3-dCTP (Amersham) or Cy5-dCTP (Amersham) were incorporated during the RT reaction, to label the cDNA. Hybridization, subsequent scanning, and visualization were performed as previously described (Schena, M. et al. (1996) Proc Natl Acad Sci USA 93, 10614-10619). The quality control of hybridizations was performed according to applicant's methods.
Probe 2 in all hybridizations was an identical probe comprised of a pool of 0 time point RNA extractions (Table 4, Common control). This served as a common normalizing probe and allowed us to compare results from different hybridizations in formal statistical analysis. […]

spermidine synthase [6] = details: cited from earlier work
[7] = oral administration for 10 days or 4 months
[8] = rats, prolonged exposure for 10 days

With “IL-1β: the inflammatory cytokine, known to be overproduced in OA joints” as the molecule, how does the FGFR3 expression (HMSC; confluent HMSC, 6 days) read?
Its FGFR3 expression is “increased”.

What about the VEGF expression (HMSC; confluent HMSC, 6 days) of the same molecule?
The VEGF expression was “increased”.

And the “chondrocyte maturation and cartilage matrix production (Alcian Blue staining)” value (HMSC; confluent HMSC, 6 days)?
The value was “decreased”.

What about the expression of osteocalcin (HMSC; confluent HMSC, 6 days) of the same molecule?
Its expression of osteocalcin is “increased”.

What about the “cytotoxicity to HMSC” value (HMSC; high doses) of the same molecule?
Its value is “cytotoxic”.

For `CC(C=NNC(=N)N)=NNC(=N)N` [MGBG, methylglyoxal bis(guanylhydrazone), reference compound], which fusion of macrophages [1] is on record?
Its fusion of macrophages is “concomitant inhibition”.

What about the “enhanced synthesis of proteins induced by 1α,25(OH)2D3” value [1] of the same molecule?
The value was “greatly diminished”.

What does the source list for `NCCCCC[S+](CCN)CC1OC(n2cnc3c(N)ncnc32)C(O)C1O` (centres unmarked) [AdoDATO, S-adenosyl-1,8-diamino-3-thiooctane]?
cellular spermidine content (spermidine synthase [2]): drastic decrease; putrescine content (spermidine synthase [2]): concomitant elevation; cell proliferation (cell proliferation): significant decrease

For `C1CCC(NC2CCCCC2)CC1` [DCHA], which “levels of all three polyamines on continued treatment” value (spermidine synthase [3]; continued DCHA treatment) is on record?
Its value is “returned to normal within two weeks”.

And the brain spermidine (spermidine synthase [3]; daily administration)?
Its brain spermidine is “dose-dependent depletion”.

And the putrescine and spermine (spermidine synthase [3]; daily administration)?
The putrescine and spermine was “rise”.

For `NCCCCNCCCN` [spermidine], which “activity of alkaline phosphatase produced from cartilage” value (alkaline phosphatase) is on record?
The value was “increased”.

And the “effect on displacing proteoglycan subunits from collagen column” value [4]?
The value was “strong capacity”.

What about the “proteoglycan subunits removed from the column” value [4] of the same molecule?
Its value is “about 90%”.

And the fusion of macrophages [1]?
The fusion of macrophages was “restored”.

What about the “enhanced synthesis of proteins induced by 1α,25(OH)2D3” value [1] of the same molecule?
The value was “restored”.

Which “effect on displacing proteoglycan subunits from collagen column” value [4] does the source give for `NCCCCN` [putrescine, 1,4-diaminobutane] here?
The value was “without effect”.

Which FGFR3 expression (HMSC; confluent HMSC, 6 days) does the source give for FGF-2: fibroblast growth factor here?
Its FGFR3 expression is “increased”.

What about the VEGF expression (HMSC; confluent HMSC, 6 days) of the same molecule?
The VEGF expression was “increased”.

And the “chondrocyte maturation and cartilage matrix production (Alcian Blue staining)” value (HMSC; confluent HMSC, 6 days)?
The value was “decreased”.

What about the expression of osteocalcin (HMSC; confluent HMSC, 6 days) of the same molecule?
Its expression of osteocalcin is “increased”.

What about the “expression of spermidine synthase gene” value (spermidine synthase [5]) of the same molecule?
The value was “up-regulation”.

What does the source list for `NCCCNCCCCNCCCN` [spermine]?
activity of alkaline phosphatase produced from cartilage (alkaline phosphatase): increased; effect on displacing proteoglycan subunits from collagen column [4]: without effect

Which FGFR3 expression (HMSC; confluent HMSC, 6 days) does the source give for “IGF-1: growth factor that is beneficial for normal cartilage function and rehabilitation” here?
The FGFR3 expression was “decreased”.

And the “chondrocyte maturation and cartilage matrix production (Alcian Blue staining)” value (HMSC; confluent HMSC, 6 days)?
The value was “accelerates”.

What about the “expression of collagen type II” value (HMSC; confluent HMSC, 6 days) of the same molecule?
Its value is “increased”.

Which results are given for `C[C@H]1CC[C@H](N)CC1` [4MCHA, trans-4-methylcyclohexylamine]?
spermidine in rat tissue (spermidine synthase [6]; [7]): specific and marked decrease; spermine in rat tissue (spermidine synthase [6]; [7]): compensatory increase; reduction in spermidine (spermidine synthase [6]; rats, prolonged exposure for 10 days, variety of tissues): 70-80%; effect on growth (spermidine synthase [6]; [8]): no obvious effect; spermine (spermidine synthase [6]; [8]): compensatory increase; total polyamine content (spermidine synthase [6]; [8]): remained constant
